Paper PMC7802073, “Small Molecule Inhibitors of the Bacterioferritin (BfrB)–Ferredoxin (Bfd) Complex Kill Biofilm-Embedded Pseudomonas aeruginosa Cells” (ACS Infectious Diseases, 2020)

Key:
[1] = test system: P. aeruginosa clinical isolate PA_1076058; test: Viable cells (CFU/mL) dispersed from pellicle biofilms of a clinical isolate; format: cell-based, Pseudomonas aeruginosa; conditions: PA_1076058 pellicles, 24 h, 1.2× IC50 (KM-5-25 80 μM, KM-5-66 50 μM)
Experimental: (§1) Pellicle biofilms were grown as described above.

[2] = test system: P. aeruginosa clinical isolate PA_1081725; test: as above; format: cell-based, Pseudomonas aeruginosa; conditions: PA_1081725 pellicles, 24 h, 1.2× IC50 (KM-5-25 80 μM, KM-5-66 50 μM)
Experimental: as §1

BfrB = BfrB (Pseudomonas aeruginosa, UniProt Q9HY79); test: Dissociation constant (Kd) for BfrB by fluorescence polarization; format: binding
Experimental: Dissociation constants for the interaction between BfrB and 3-aminoisoindoline-1,3-dione derivatives (Table 1, Figure S1) were measured in vitro with a fluorescence polarization method based on the intrinsic fluorescence of the isoindoline-1,3-dione moiety, as described previously.[25]
25 (A) and KM-5-66 (B) for BfrB, evaluated by fluorescence polarization, as described previously1.
Values were obtained in 100 mM potassium phosphate buffer (pH 7.6) containing 1 mM TCEP and
0.5% DMSO. The initial concentrations of KM-5-25 and KM-5-66 were 5 µM. The Kd values are the
average and standard deviation from three independent measurements. […]

[3] = test system: iron stored in BfrB in pellicle-embedded P. aeruginosa PAO1 cells; test: Iron stored in BfrB, native PAGE stained with Ferene S, densitometry; format: cell-based, Pseudomonas aeruginosa; conditions: 2-day old pellicles, 24 h, KM-5-25 40 μM or KM-5-66 20 μM
P. aeruginosa PAO1 = test: Half maximal inhibitory concentration (IC50) on planktonic growth, CFU/mL enumeration; format: cell-based, Pseudomonas aeruginosa; conditions: Pseudomonas aeruginosa, PAO1, defined media, 24 h, 35 °C, 2% DMSO, this work, read-out: IC50
Experimental: Chemicals were purchased from Fisher Scientific unless otherwise stated. P. aeruginosa PAO1 was obtained from the University of Washington Genome center.[81] The PAO1 strain expressing enhanced yellow fluorescent protein (EYFP) was prepared previously.[26] Clinical isolates of P. aeruginosa were purchased from JMI Laboratories (North Liberty, IA, USA). […] Starter cultures were grown from a single colony at 37 °C and shaking at 220 rpm for 14 h in 5 mL PI media supplemented with 10 μM Fe. Pellicle biofilms were cultured for 48 h at 30 °C in PI media supplemented with 20 μM Fe. Surface-attached biofilms were cultured in AB minimal media[82] supplemented with trace metals [0.15 μM (NH4)2MoO4, 3 μM CuSO4, 2 μM Co(NO3)2, 9.4 μM Na2B4O7, and 7.6 μM ZnSO4], 3 mM glucose and 15 μM Fe. Iron supplementation was carried out by addition of a small volume of filter-sterilized 10 mM (NH4)2Fe(SO4)2 (pH ∼ 2.0) solution. […]; IC50 values (Table 1, Figure S1) were determined as reported previously[25] with small modifications. In brief: precultures of P. aeruginosa PAO1 (5 mL) were grown in LB media for 13 h at 37 °C and 220 rpm in 50 mL conical tubes (VWR International, PA). The cells were centrifuged for 5 min at 4000 rpm and 4 °C, washed two times and then diluted in buffer (100 mM KH2PO4 and 15 mM (NH4)2SO4) to an optical density at 600 nm (OD600) of 0.1. A small volume of compound stock solution (10 mM) was transferred to a microcentrifuge tube, initially diluted with DMSO to 20 μL, and then diluted to 1 mL with preculture cell suspension in defined media with OD600 = 0.0001, so the final DMSO concentration is 2%. The resultant cell suspension (200 μL) was transferred to a clear-bottom polystyrene 96-well plate (VWR) covered with a lid and incubated at 35 °C and 205 cpm for 24 h in a Synergy H1 microplate reader (Biotek Instruments Inc., Vermont). The cell cultures were serially diluted and then plated on PI Agar (PIA; BD biosciences) plates for enumeration of viable cells (CFU/mL). The % growth was calculated from the ratio CFU/mL(treated)/CFU/mL(untreated control). To calculate the IC50 values, the % growth was plotted as a function of compound concentration, expressed as log[compound] (μM), and fitted to the 4-parameter logistic model describing the sigmoid-shaped response pattern (eq 1),[84] where b is the slope factor, max is the upper asymptote (plateau), and min is the lower asymptote. Values are the average and standard deviation from three independent experiments. [drawing 1] 1

[4] = test system: P. aeruginosa PAO1 cells dispersed from pellicles; test: Total intracellular iron in biofilm-embedded cells; format: cell-based, Pseudomonas aeruginosa; conditions: 2-day old pellicles, 24 h, KM-5-25 40 μM or KM-5-66 20 μM
Experimental: Pellicle biofilms were grown for 48 h as described above. The pellicles were transferred onto square (2 × 2 cm) glass coverslips by gently contacting the pellicle with the coverslip. […] After the zirconia beads had sedimented, a 100 μL aliquot was sampled from the cell suspension for plating and enumeration of viable cells and a 14 mL sample was used to harvest the cells by centrifugation (20 min, 400 rpm). The cell pellet was resuspended in 1 mL PBS, transferred to a 1.5 mL microcentrifuge tube, centrifuged for 10 min at 12 500 rpm at 4 °C and the cell pellet frozen at −80 °C. The frozen cells were subjected to three freeze–thaw cycles and then lysed by addition of 200 μL of lysis buffer (50 mM Tris-HCl buffer (pH 8.0) containing 10% (v/v) glycerol, 20 mg/mL lysozyme, 0.2 mg/mL DNase, 0.1 M NaCl, 1 mM MgSO4 and 1% (v/v) Triton-X100) and incubated at ambient temperature (30 min) and at 37 °C (30 min). […] Levels of total intracellular iron were determined as reported previously:[23],[87] […] The iron concentration was measured from the absorbance of the Fe^2+–Ferene S complex (ε593 = 34.5 mM^–1 cm^–1),[88] normalized by the viable cell counts and reported as Fe atoms per cell.

Sequence of BfrB (Q9HY79 whole entry): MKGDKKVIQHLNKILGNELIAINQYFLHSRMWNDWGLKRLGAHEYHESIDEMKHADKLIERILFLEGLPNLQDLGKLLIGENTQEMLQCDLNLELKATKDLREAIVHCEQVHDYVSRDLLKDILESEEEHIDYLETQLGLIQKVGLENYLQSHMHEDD

Compound	reduction of viable cells [1]	reduction of viable cells [2]	Kd (BfrB)	iron in BfrB relative to cells in untreated pellicles (Ferene S band peak area) [3]	IC50 (P. aeruginosa PAO1)	total intracellular iron normalized to viable cell counts, relative to untreated biofilms [4]
O=C1NC(=O)c2c(NCc3cc(Cl)ccc3O)cccc21 [KM-5-25, 4-((5-Chloro-2-hydroxybenzyl)amino)isoindoline-1,3-dione]	approximately 80%	approximately 80%	4 ± 0.6 µM	~3 fold	69 ± 7 µM	~2.5 fold
O=C1NC(=O)c2c(NCCCc3cc(O)cc(Cl)c3)cccc21 [KM-5-66, 4-((3-(3-Chloro-5-hydroxyphenyl)propyl)amino)isoindoline-1,3-dione]	approximately 80%	approximately 80%	0.35 ± 0.05 µM	~3 fold	42 ± 6 µM	~2.5 fold
